Reference: the supplement of paper PMC11061612

Experiments:
Assay in all cases: Bliss excess, mean over the matrix (fraction); higher = more synergy
[1] = tested on: COLO-205 (Colorectal Carcinoma)
In short: (§1)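 After 24 hours at 37°C and 5% CO2 in 1536-well plates, cells in DMEM/F12 or RPMI plus 10% FBS received two-drug dose matrices for 72 hours. Viability came from CellTiter-Glo 2.0 luminescence and was scaled as inhibition, anchored at 0 by vehicle wells and at 1 by blank wells. Combination Emax is taken as the second-highest inhibition in the matrix, and Bliss excess as the observed combination effect less EA + EB − EA·EB, with EA and EB the single-agent effects.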

[2] = tested on: OVCA420 (Ovarian Carcinoma)
In short: as §1

NB10 (Neuroblastoma) = tested on: NB10 (Neuroblastoma)
In short: as §1

[3] = tested on: HCC-78 (Lung Adenocarcinoma)
In short: as §1

[4] = tested on: KURAMOCHI (Ovarian Carcinoma)
In short: as §1

[5] = tested on: DoTc2-4510 (Cervical Carcinoma)
In short: as §1

[6] = tested on: Hs-578-T (Breast Carcinoma)
In short: as §1

[7] = tested on: NCI-H82 (Small Cell Lung Carcinoma)
In short: as §1

[8] = tested on: RO82-W-1 (Thyroid Gland Carcinoma)
In short: as §1

[9] = tested on: HO-1-N-1 (Oral Cavity Carcinoma)
In short: as §1

[10] = tested on: EC-GI-10 (Esophageal Squamous Cell Carcinoma)
In short: as §1

[11] = tested on: KP-1N (Pancreatic Carcinoma)
In short: as §1

[12] = tested on: LNCaP-Clone-FGC (Prostate Carcinoma)
In short: as §1

[13] = tested on: LS-180 (Colorectal Carcinoma)
In short: as §1

[14] = tested on: HT-1376 (Bladder Carcinoma)
In short: as §1

[15] = tested on: HCC1806 (Breast Carcinoma)
In short: as §1

HOS (Osteosarcoma) = tested on: HOS (Osteosarcoma)
In short: as §1

[16] = tested on: TCCSUP (Bladder Carcinoma)
In short: as §1

[17] = tested on: KYSE-520 (Esophageal Squamous Cell Carcinoma)
In short: as §1

[18] = tested on: CAL-148 (Breast Carcinoma)
In short: as §1

Compound | Bliss excess [1] | Bliss excess [2] | Bliss excess (NB10 (Neuroblastoma)) | Bliss excess [3] | Bliss excess [4] | Bliss excess [5] | Bliss excess [6] | Bliss excess [7] | Bliss excess [8] | Bliss excess [9] | Bliss excess [10] | Bliss excess [11] | Bliss excess [12] | Bliss excess [13] | Bliss excess [14] | Bliss excess [15] | Bliss excess (HOS (Osteosarcoma)) | Bliss excess [16] | Bliss excess [17] | Bliss excess [18]
CN(C)CCCOc1ccc(-c2ccc3ncc4c(c3c2)n(C2CCOCC2)c(=O)n4C)cn1 [AZD0156] + C=CCn1c(=O)c2cnc(Nc3ccc(N4CCN(C)CC4)cc3)nc2n1-c1cccc(C(C)(C)O)n1 [AZD1775] (first compound max 1 µM, partner max 1 µM) | -0.0229 | -0.0225 | -0.0093 | 0.0011 | -0.031 | -0.0204 | -0.0457 | -0.0283 | -0.119 | -0.012 | -0.0001 | -0.0207 | -0.045 | -0.0459 | -0.134 | -0.0219 | -0.0196 | -0.0651 | -0.0232 | -0.0318
CN(C)CCCOc1ccc(-c2ccc3ncc4c(c3c2)n(C2CCOCC2)c(=O)n4C)cn1 [AZD0156] + CCN(CCO)CCCOc1ccc2c(Nc3cc(CC(=O)Nc4cccc(F)c4)[nH]n3)ncnc2c1 [AZD2811] (first compound max 1 µM, 7x7, partner max 1 µM) | 0.0035 | -0.0308 | -0.0464 | -0.0058 | -0.0357 | -0.0111 | -0.0708 | 0.0315 | -0.0556 | 0.0056 | 0.0507 | 0.0312 | -0.0257 | -0.0264 | -0.0665 | -0.003 | -0.0186 | -0.0589 | 0.005 | -0.0262
CN(C)CCCOc1ccc(-c2ccc3ncc4c(c3c2)n(C2CCOCC2)c(=O)n4C)cn1 [AZD0156] + C[C@@H]1COCCN1C2=NC(=NC(=C2)C3(CC3)[S@](=N)(=O)C)C4=C5C=CNC5=NC=C4 [AZD6738] (first compound max 1 µM, 7x7, partner max 10 µM) | -0.0057 | 0.0052 | -0.038 | -0.0031 | -0.0119 | 0.0037 | -0.0157 | 0.0286 | -0.0649 | -0.0101 | 0.0263 | 0.0261 | -0.056 | -0.0347 | -0.0193 | 0.0241 | 0.024 | -0.0255 | -0.0172 | -0.0441
CN(C)CCCOc1ccc(-c2ccc3ncc4c(c3c2)n(C2CCOCC2)c(=O)n4C)cn1 [AZD0156] + O=C(c1cc(Cc2n[nH]c(=O)c3ccccc23)ccc1F)N1CCN(C(=O)C2CC2)CC1 [Olaparib] (first compound max 3 µM, partner max 3 µM) | 0.125 | 0.0121 | 0.334 | 0.109 | -0.0737 | -0.043 | 0.0937 | 0.0369 | -0.0299 | 0.0618 | 0.0772 | -0.0043 | 0.0755 | -0.002 | -0.0417 | 0.191 | 0.046 | 0.0405 | -0.0172 | 0.0072
C=CCn1c(=O)c2cnc(Nc3ccc(N4CCN(C)CC4)cc3)nc2n1-c1cccc(C(C)(C)O)n1 [AZD1775] + C1CN(CCC1(C(=O)N[C@@H](CCO)C2=CC=C(C=C2)Cl)N)C3=NC=NC4=C3C=CN4 [Capivasertib] (first compound max 3 µM, partner max 3 µM) | 0.102 | -0.0518 | -0.18 | -0.0672 | -0.072 | 0.0408 | -0.102 | 0.003 | -0.0678 | 0.0595 | 0.0203 | -0.0101 | -0.0492 | -0.0513 | 0.0513 | 0.0151 | -0.0141 | 0.0046 | -0.0129 | -0.0405
C=CCn1c(=O)c2cnc(Nc3ccc(N4CCN(C)CC4)cc3)nc2n1-c1cccc(C(C)(C)O)n1 [AZD1775] + C[C@@H]1COCCN1C2=NC(=NC(=C2)C3(CC3)[S@](=N)(=O)C)C4=C5C=CNC5=NC=C4 [AZD6738] (first compound max 1 µM, partner max 10 µM) | 0.141 | 0.0441 | 0.0822 | 0.0101 | -0.0355 | 0.0479 | -0.0127 | – | -0.0916 | 0.0456 | 0.0535 | 0.0055 | -0.0387 | -0.0098 | -0.0483 | 0.0166 | 0.106 | 0.0305 | -0.003 | -0.034
C=CCn1c(=O)c2cnc(Nc3ccc(N4CCN(C)CC4)cc3)nc2n1-c1cccc(C(C)(C)O)n1 [AZD1775] + O=C(c1cc(Cc2n[nH]c(=O)c3ccccc23)ccc1F)N1CCN(C(=O)C2CC2)CC1 [Olaparib] (first compound max 1 µM, partner max 10 µM) | -0.0149 | 0.0916 | -0.0088 | -0.029 | -0.0358 | -0.0634 | -0.0965 | -0.0098 | -0.0724 | 0.0217 | -0.0245 | -0.0239 | -0.0242 | -0.0188 | -0.0509 | -0.0294 | -0.0389 | 0.0107 | -0.0301 | 0.0068
CCN(CCO)CCCOc1ccc2c(Nc3cc(CC(=O)Nc4cccc(F)c4)[nH]n3)ncnc2c1 [AZD2811] + C=CCn1c(=O)c2cnc(Nc3ccc(N4CCN(C)CC4)cc3)nc2n1-c1cccc(C(C)(C)O)n1 [AZD1775] (first compound max 1 µM, partner max 1 µM) | 0.008 | -0.0047 | -0.0399 | 0.0092 | -0.0602 | -0.0323 | -0.0212 | 0.0241 | -0.063 | -0.0785 | 0.0411 | 0.0124 | 0.0001 | 0.0269 | -0.0947 | 0.0012 | 0.0066 | -0.0204 | -0.0048 | -0.0165
CCN(CCO)CCCOc1ccc2c(Nc3cc(CC(=O)Nc4cccc(F)c4)[nH]n3)ncnc2c1 [AZD2811] + C[C@@H]1COCCN1C2=NC(=NC(=C2)C3(CC3)[S@](=N)(=O)C)C4=C5C=CNC5=NC=C4 [AZD6738] (first compound max 1 µM, 7x7, partner max 10 µM) | -0.0872 | -0.0777 | -0.056 | 0.0099 | -0.0649 | -0.0481 | -0.0811 | -0.0406 | -0.0543 | -0.053 | 0.0182 | -0.0189 | -0.0447 | -0.0723 | -0.0566 | -0.014 | -0.0432 | 0.0006 | -0.0323 | -0.0252
CCN(CCO)CCCOc1ccc2c(Nc3cc(CC(=O)Nc4cccc(F)c4)[nH]n3)ncnc2c1 [AZD2811] + O=C(c1cc(Cc2n[nH]c(=O)c3ccccc23)ccc1F)N1CCN(C(=O)C2CC2)CC1 [Olaparib] (first compound max 1 µM, 7x7, partner max 10 µM) | 0.0075 | 0.0008 | -0.0445 | 0.0013 | -0.0317 | 0.0035 | -0.0192 | 0.022 | -0.0564 | -0.0329 | 0.0377 | -0.0175 | -0.0009 | 0.0636 | -0.0499 | 0.0298 | -0.0188 | 0.0238 | -0.0217 | 0.0319
COc1nnc2ccc(N3CCC(c4ccc(OCCN5CCN(C)C(=O)[C@H]5C)cc4)CC3)nn12 [AZD5153] + CN(CC[C@H](CSC1=CC=CC=C1)NC2=C(C=C(C=C2)S(=O)(=O)NC(=O)C3=CC=C(C=C3)N4CCC(CC4)[C@H](C5=CC=CC=C5C6=CC=C(C=C6)Cl)O)S(=O)(=O)C(F)(F)F)CCO [AZD4320] (first compound max 1 µM, 7x7, partner max 1 µM) | 0.0335 | -0.0203 | – | – | – | – | – | – | – | – | -0.0052 | -0.0004 | 0.0557 | – | – | 0.0257 | – | 0.0033 | 0.023 | –
Cc1c2c(nn1C)CSCc1cc(n(C)n1)CSc1cc(c3ccccc3c1)OCCCc1c(C(=O)O)n(C)c3c-2c(Cl)ccc13 [AZD5991] + Cc1cc2ncnn2cc1Nc1ncc2c(n1)n(C1CCOCC1)c(=O)n2C [AZD7648] (first compound max 1 µM, 7x7, partner max 10 µM) | -0.0604 | -0.0531 | 0.0047 | -0.016 | -0.0228 | – | -0.0058 | 0.0174 | -0.0503 | -0.0039 | -0.0555 | -0.0518 | -0.0423 | -0.0213 | -0.0218 | -0.0203 | -0.0036 | -0.0203 | -0.0595 | -0.0121
CC(=O)c1c(C)c2cnc(Nc3ccc(N4CCNCC4)cn3)nc2n(C2CCCC2)c1=O [Palbociclib] + CN(CC[C@H](CSC1=CC=CC=C1)NC2=C(C=C(C=C2)S(=O)(=O)NC(=O)C3=CC=C(C=C3)N4CCC(CC4)[C@H](C5=CC=CC=C5C6=CC=C(C=C6)Cl)O)S(=O)(=O)C(F)(F)F)CCO [AZD4320] (first compound max 10 µM, 7x7, partner max 1 µM) | -0.0497 | -0.0591 | – | – | – | – | – | – | – | – | -0.0715 | -0.0305 | -0.0902 | – | – | -0.0398 | – | -0.0607 | -0.0557 | –
CCc1c2c(nc3ccc(O)cc13)-c1cc3c(c(=O)n1C2)COC(=O)[C@]3(O)CC [SN-38] + O=C(c1cc(Cc2n[nH]c(=O)c3ccccc23)ccc1F)N1CCN(C(=O)C2CC2)CC1 [Olaparib] (first compound max 0.3 µM, 7x7, partner max 10 µM) | 0.0491 | – | -0.0154 | 0.0106 | -0.0232 | 0.0174 | 0.0807 | -0.0065 | -0.0448 | 0.06 | – | 0.0647 | – | 0.064 | -0.0464 | 0.0498 | 0.0819 | 0.0883 | – | 0.0981
C[C@@H](c1ccc2nccn2c1)n1nnc2ncc(-c3cnn(C)c3)nc21 [Savolitinib] + CN(CC[C@H](CSC1=CC=CC=C1)NC2=C(C=C(C=C2)S(=O)(=O)NC(=O)C3=CC=C(C=C3)N4CCC(CC4)[C@H](C5=CC=CC=C5C6=CC=C(C=C6)Cl)O)S(=O)(=O)C(F)(F)F)CCO [AZD4320] (first compound max 1 µM, 7x7, partner max 1 µM) | -0.043 | -0.0691 | – | – | – | – | – | – | – | – | 0.0005 | -0.0755 | -0.0205 | – | – | -0.0031 | – | -0.0469 | -0.0298 | –
